Measured values reported in ChEMBL document CHEMBL1131203, “Second generation "peptoid" CCK-B receptor antagonists: identification and development of N-(adamantyloxycarbonyl)-alpha-methyl-(R)-tryptophan derivative (CI-1015) with an improved pharmacokinetic profile” (J Med Chem, 1998).

Key:
[1] = target: T1, Gastrin/cholecystokinin type B receptor (Mus musculus, UniProt P56481); test: Inhibitory concentration against radioligand [125I]Bolton-Hunter labeled CCK-8 to cholecystokinin type B receptor in the mouse cerebral cortex; format: tissue-based
T1 sequence (P56481 whole entry): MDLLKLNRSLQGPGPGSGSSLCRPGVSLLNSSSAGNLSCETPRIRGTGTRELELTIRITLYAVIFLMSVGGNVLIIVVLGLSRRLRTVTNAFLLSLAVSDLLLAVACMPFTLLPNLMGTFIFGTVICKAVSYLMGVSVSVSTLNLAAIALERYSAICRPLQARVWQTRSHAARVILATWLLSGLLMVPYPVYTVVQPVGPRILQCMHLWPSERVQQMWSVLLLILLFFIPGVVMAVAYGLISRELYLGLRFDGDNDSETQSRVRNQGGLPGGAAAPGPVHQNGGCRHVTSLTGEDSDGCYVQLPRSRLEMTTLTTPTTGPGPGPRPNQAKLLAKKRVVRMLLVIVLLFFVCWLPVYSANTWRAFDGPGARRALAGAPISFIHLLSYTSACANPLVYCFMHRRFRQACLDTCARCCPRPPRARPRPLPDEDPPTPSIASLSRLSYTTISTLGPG

[2] = Ratio of IC50 towards CCK-A receptor and CCK-B receptor
[3] = target: T2, Cholecystokinin receptor type A (Rattus norvegicus, UniProt P30551); test: Inhibitory concentration against radioligand [125I]Bolton-Hunter labeled CCK-8 to cholecystokinin type A receptor in the rat pancreas
T2 sequence (P30551 whole entry): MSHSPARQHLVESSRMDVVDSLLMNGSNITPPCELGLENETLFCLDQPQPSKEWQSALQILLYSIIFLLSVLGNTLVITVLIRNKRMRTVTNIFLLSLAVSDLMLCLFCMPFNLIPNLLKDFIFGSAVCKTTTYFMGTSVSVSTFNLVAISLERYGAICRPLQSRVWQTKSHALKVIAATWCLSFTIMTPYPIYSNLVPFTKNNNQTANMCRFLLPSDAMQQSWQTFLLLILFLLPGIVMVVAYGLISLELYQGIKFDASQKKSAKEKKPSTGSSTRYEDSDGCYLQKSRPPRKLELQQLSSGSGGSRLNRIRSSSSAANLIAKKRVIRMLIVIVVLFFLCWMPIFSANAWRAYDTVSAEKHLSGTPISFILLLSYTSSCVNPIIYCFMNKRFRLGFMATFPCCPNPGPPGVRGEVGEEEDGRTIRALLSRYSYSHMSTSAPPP

IC50 [1] [nM] | Ratio [2] | IC50 [3] [nM] | SMILES
1770 | 8.9 | 15700 | C[C@](Cc1c[nH]c2ccccc12)(NC(=O)OC1C2CC3CC(C2)CC1C3)C(=O)NC(CC(=O)O)CC(=O)O (stereo partly specified)
2.5 | 1370 | 3430 | COC[C@H]1CCCN1NC(=O)[C@@](C)(Cc1c[nH]c2ccccc12)NC(=O)OC1C2CC3CC(C2)CC1C3 (stereo partly specified)
19.9 | 112 | 2240 | C[C@](Cc1c[nH]c2ccccc12)(NC(=O)OC1C2CC3CC(C2)CC1C3)C(=O)NC(Cc1ccccc1)Cc1ccccc1 (stereo partly specified)
83 | 18.4 | 1520 | C[C@](Cc1c[nH]c2ccccc12)(NC(=O)OC1C2CC3CC(C2)CC1C3)C(=O)NC1(C(=O)O)CCCCC1 (stereo partly specified)
19.7 | 194 | 3830 | C[C@](Cc1c[nH]c2ccccc12)(NC(=O)OC1C2CC3CC(C2)CC1C3)C(=O)NN1CCCCC1 (stereo partly specified)
268 | 5.3 | 1420 | C[C@](Cc1c[nH]c2ccccc12)(NC(=O)OC1C2CC3CC(C2)CC1C3)C(=O)NC1(CO)CCCC1 (stereo partly specified)
3.5 | 429 | 1500 | C[C@](Cc1c[nH]c2ccccc12)(NC(=O)OC1C2CC3CC(C2)CC1C3)C(=O)NC1CCCCC1C#N (stereo partly specified)
45.5 | 71 | 3230 | C[C@](Cc1c[nH]c2ccccc12)(NC(=O)OC1C2CC3CC(C2)CC1C3)C(=O)NC1CCCCCC1 (stereo partly specified)
166 |  | 1250 | C[C@](Cc1c[nH]c2ccccc12)(NC(=O)OC1C2CC3CC(C2)CC1C3)C(=O)NC1CC2CCC1C2 (stereo in doubt; 22) [listing 1 of 2 here]
78.5 |  | 1460 | C[C@](Cc1c[nH]c2ccccc12)(NC(=O)OC1C2CC3CC(C2)CC1C3)C(=O)NC1CC2CCC1C2 (stereo in doubt; 21) [listing 1 of 2 here]
65.4 | 105 | 6900 | COC[C@@H]1CCCN1NC(=O)[C@@](C)(Cc1c[nH]c2ccccc12)NC(=O)OC1C2CC3CC(C2)CC1C3 (stereo partly specified)
214 | 5.5 | 1170 | COC(=O)CC(CC(=O)OC)NC(=O)[C@@](C)(Cc1c[nH]c2ccccc12)NC(=O)OC1C2CC3CC(C2)CC1C3 (stereo partly specified)
 | 18.6 |  | C[C@](Cc1c[nH]c2ccccc12)(NC(=O)OC1C2CC3CC(C2)CC1C3)C(=O)NC1CC2CCC1C2 (stereo in doubt; 21) [listing 2 of 2 here]
4.65 | 267 | 1240 | C[C@](Cc1c[nH]c2ccccc12)(NC(=O)OC1C2CC3CC(C2)CC1C3)C(=O)N[C@@H]1CCCCC[C@H]1O (stereo partly specified)
 |  | 1940 | C[C@](Cc1c[nH]c2ccccc12)(NC(=O)OC1C2CC3CC(C2)CC1C3)C(=O)N[C@H]1CCCC[C@@H]1O (stereo partly specified)
132 | 82 | 10800 | C[C@](Cc1c[nH]c2ccccc12)(NC(=O)OC1C2CC3CC(C2)CC1C3)C(=O)NN1CCCC1 (stereo partly specified)
0.99 | 708 | 701 | C[C@](Cc1c[nH]c2ccccc12)(NC(=O)OC1C2CC3CC(C2)CC1C3)C(=O)NC1CCCCC1C(=O)O (stereo partly specified)
 |  | 1380 | C[C@](Cc1c[nH]c2ccccc12)(NC(=O)OC1C2CC3CC(C2)CC1C3)C(=O)NC1CCCCC1O (stereo partly specified)
314 | 10.6 | 3330 | C[C@](Cc1c[nH]c2ccccc12)(NC(=O)OC1C2CC3CC(C2)CC1C3)C(=O)CNC1CCCCC1 (stereo partly specified)
 | 7.5 |  | C[C@](Cc1c[nH]c2ccccc12)(NC(=O)OC1C2CC3CC(C2)CC1C3)C(=O)NC1CC2CCC1C2 (stereo in doubt; 22) [listing 2 of 2 here]
12.2 | 248 | 3040 | C[C@](Cc1c[nH]c2ccccc12)(NC(=O)OC1C2CC3CC(C2)CC1C3)C(=O)NN1CCCCCC1 (stereo partly specified)
50 | 48 | 2400 | C[C@](Cc1c[nH]c2ccccc12)(NC(=O)OC1C2CC3CC(C2)CC1C3)C(=O)NC1CCCCC1 (stereo partly specified)
121 | 12.5 | 1510 | C[C@](Cc1c[nH]c2ccccc12)(NC(=O)OC1C2CC3CC(C2)CC1C3)C(=O)NC1(CO)CCCCC1 (stereo partly specified)
191 | 10.4 | 1990 | COC(=O)C1(NC(=O)[C@@](C)(Cc2c[nH]c3ccccc23)NC(=O)OC2C3CC4CC(C3)CC2C4)CCCCC1 (stereo partly specified)
39 | 71.4 | 2780 | CC1CCCCC1NC(=O)[C@@](C)(Cc1c[nH]c2ccccc12)NC(=O)OC1C2CC3CC(C2)CC1C3 (stereo partly specified)
6.5 | 238 | 1560 | C[C@](Cc1c[nH]c2ccccc12)(NC(=O)OC1C2CC3CC(C2)CC1C3)C(=O)NN1CC2CCC(CC2)C1 (stereo partly specified)
25.5 | 65 | 1660 | C[C@](Cc1c[nH]c2ccccc12)(NC(=O)OC1C2CC3CC(C2)CC1C3)C(=O)N[C@H]1CCCCC[C@@H]1O (stereo partly specified)
